According to patent US20130137767A1, “Methods and Compositions for Treating Arthritis with Docosahexaenoic Acid” (DSM IP ASSETS B.V., priority 2010, published 2013):

Tests used:
[1] = test system: Collagen-Induced Arthritis (CIA); assay: CIA-EE (Example 1): paw, knee and six-joint histopathology; type: in vivo, Male DBA/1O1aHsd mice; conditions: day 45, vs OA-EE placebo, FIG. 4
Excerpt: (§1) Male DBA/1O1aHsd mice (3.5-4 weeks of age) were randomized by weight and enrolled in the study after a three day quarantine in which animals were fed the AlN-93G diet with a modified base fat: 1 part flax seed oil (flax), 9 parts hydrogenated coconut oil (HCOC) and 21 parts high-oleic safflower oil (HO-SAFF). 15 animals were enrolled per study group, with the exception of the No Disease control that had 4 animals. Study groups consisted of:
(§2) The appropriate ethyl esters were blended into the base diet to provide approximately 2500 and 5000 mg/kg polyunsaturated fatty acid (PUFA) per day. The human equivalent doses (HED) were approximately 12 g/day and 22 g/day, respectively. The 2500 mg/kg EE diets contained the following fat blend: 1 part flax, 12 parts HCOC and 23 parts HO-SAFF. The 5000 mg/kg EE diets contained a fat blend consisting of: 1 part flax, 5 parts HCOC and 20 parts HO-SAFF. All study diets provided a total of 7% fat. Animals were fed study diets for approximately 30 days prior to the first collagen injection at day 0 and remained on the diets until study termination (day 45). Animals in the No Disease control and Dexamethasone groups were fed the diet containing OA-EE. Following a second collagen injection on day 21, arthritis severity was scored daily. Blood samples were collected at day 21 and day 45. Joints, 6 per an animal, were collected for histology and pathology on day 45.
Placebo-treated diseased animals had histopathology changes, consistent with those seen in type II collagen induced arthritis, in most joints, with scores ranging from normal to severe. Microscopic alteration included infiltration of synovium and periarticular tissue with neutrophils and mononuclear inflammatory cells (inflammation), marginal zone pannus and bone resorption and cartilage damage (proteoglycan loss, chondrocyte death and collagen matrix destruction). Four-paw, knee and joint parameters were assigned a quantitative score 0=normal, 1=minimal, 2=mild, 3=moderate, 4=marked, 5=severe and a total score was determined per animal.

[2] = test system: Collagen-Induced Arthritis (CIA); assay: Collagen-Induced Arthritis, ethyl esters (CIA-EE, Example 1): clinical arthritis severity and incidence; type: in vivo, Male DBA/1O1aHsd mice; conditions: for arthritis severity score as area under the curve (AUC): days 18-45, FIG. 2; for incidence of disease (clinical arthritis score greater than 0): day 45
Excerpt: The anti-arthritic activity of DHA, DPAn6, DHA/DPAn6 (DHA S-oil ratio) and DHA/EPA (fish oil ratio) ethyl esters (EE) in a chronic mouse model of inflammation, Collagen-Induced Arthritis (CIA), was studied.
as §1, §2
Data was analyzed and compared by one-way ANOVA using the Bonferroni post-test to compare treatment groups to respective placebo control and to make comparisons between treatment groups (GraphPad, Prism, Version 4.0). Effects were considered to be statistically significant at p<0.05.
Arthritis severity was assessed from day 18 to 45; a score of 0 represented an animal devoid of clinical arthritis symptoms and a score of 5 represented advanced clinical arthritis. Scores from 0-5 (most severe) were assigned to each digit on the fore and hind limbs based on erythema, swelling and mobility and the mean arthritis severity per animal was determined.
The incidence of disease was reduced in animals treated with DHA-EE (FIG. 3A/B). A clinical arthritis score greater than 0 was considered diseased. The incidence of disease at day 45 was 13% in animals treated with 2500 mg/kg DHA-EE, as compared to 100% disease incidence in OA-EE (placebo) control animals.

Compound	knee histopathology parameters ([1]; 2500 mg/kg)	paw histopathology parameters (inflammation, pannus, cartilage damage, bone damage) ([1]; 2500 mg/kg)	knee histopathology parameters ([1]; 5000 mg/kg)	paw histopathology parameters (inflammation, pannus, cartilage damage, bone damage) ([1]; 5000 mg/kg)	arthritis severity score as area under the curve (AUC) ([2]; 2500 mg/kg, vs 2500 mg/kg OA-EE (placebo) control)	arthritis severity score as area under the curve (AUC) ([2]; 5000 mg/kg, vs 5000 mg/kg OA-EE (placebo) control)	incidence of disease (clinical arthritis score greater than 0) ([2]; 2500 mg/kg, FIG. 3A) [%]	incidence of disease (clinical arthritis score greater than 0) ([2]; positive control, 0.1 mg/kg) [%]
CCCCC/C=C\C/C=C\C/C=C\C/C=C\C/C=C\CCC(=O)OCC [DPAn6-EE, reference compound]	did not significantly improve	did not significantly affect	did not significantly improve	did not significantly affect	did not reduce arthritis	did not reduce arthritis	100	
C[C@@H]1C[C@H]2[C@@H]3CCC4=CC(=O)C=C[C@]4(C)[C@@]3(F)[C@@H](O)C[C@]2(C)[C@@]1(O)C(=O)CO [Dexamethasone, reference compound]								60
